The subject of the experiment is HCT116. Conditions: 72 h. In outline: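 HCT116 cells were seeded at 250 per well in 1536-well plates with 5 h allowed for attachment. CellTiter-Glo luminescence was normalized against vehicle (0%) and positive control (-100%) before pattern correction. The IC50 and maximal efficacy figures derive from four-parameter Hill fits.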

Structures can show the parent of a compound that is named as a salt.

In the case of `CN(C)[C@@H]1C(O)=C(C(=O)NCN2CCCC2)C(=O)[C@@]2(O)C(O)=C3C(=O)c4c(O)cccc4[C@@](C)(O)[C@H]3C[C@@H]12` [Rolitetracycline], the IC50 cell viability is, setting by setting: (ICRF193 0 nM) over 45.8 µM; (ICRF193 200 nM) over 45.8 µM.
Turning to `CCCN(CCC)CCc1cccc2c1CC(=O)N2` [Ropinirole], the IC50 cell viability (ICRF193 0 nM) was over 45.8 µM and the IC50 cell viability (ICRF193 200 nM) was over 45.8 µM.
On to `CCCN1CCCC[C@H]1C(=O)Nc1c(C)cccc1C` [Ropivacaine hydrochloride], for which the IC50 cell viability reads like this: (ICRF193 0 nM) over 45.8 µM; (ICRF193 200 nM) over 45.8 µM.
For the compound `CN(CCOc1ccc(CC2SC(=O)NC2=O)cc1)c1ccccn1` (stereo not given) [Rosiglitazone], the IC50 cell viability was over 45.8 µM (ICRF193 0 nM) and over 45.8 µM (ICRF193 200 nM).
In the case of `CC(C)c1nc(N(C)S(C)(=O)=O)nc(-c2ccc(F)cc2)c1/C=C/[C@@H](O)C[C@@H](O)CC(=O)O` [Rosuvastatin calcium (Crestor)], the IC50 cell viability by setting is: (ICRF193 0 nM) over 45.8 µM; (ICRF193 200 nM) over 45.8 µM.
As for `CCCN(CCc1cccs1)[C@H]1CCc2c(O)cccc2C1` [Rotigotine], the IC50 cell viability by setting is: (ICRF193 0 nM) over 45.8 µM; (ICRF193 200 nM) over 45.8 µM.
Regarding `CC(=O)OCC(=O)NCCCOc1cccc(CN2CCCCC2)c1` [Roxatidine acetate hydrochloride], the IC50 cell viability is over 45.8 µM (ICRF193 0 nM) and over 45.8 µM (ICRF193 200 nM).
Turning to `CC[C@H]1OC(=O)[C@H](C)[C@@H](O[C@H]2C[C@@](C)(OC)[C@@H](O)[C@H](C)O2)[C@H](C)[C@@H](O[C@@H]2O[C@H](C)C[C@H](N(C)C)[C@H]2O)[C@](C)(O)C[C@@H](C)/C(=N\OCOCCOC)[C@H](C)[C@@H](O)[C@]1(C)O` [Roxithromycin], the IC50 cell viability is over 45.8 µM (ICRF193 0 nM) and over 45.8 µM (ICRF193 200 nM).
With `CNCc1ccc(-c2[nH]c3cc(F)cc4c3c2CCNC4=O)cc1` [Rucaparib], the IC50 cell viability reads like this: (ICRF193 0 nM) over 45.8 µM; (ICRF193 200 nM) over 45.8 µM.
In the case of `NC(=O)c1cn(Cc2c(F)cccc2F)nn1` [Rufinamide], the IC50 cell viability is, setting by setting: (ICRF193 0 nM) over 45.8 µM; (ICRF193 200 nM) over 45.8 µM.
In the case of `C[C@@H]1O[C@@H](OC[C@H]2O[C@@H](Oc3c(-c4ccc(O)c(O)c4)oc4cc(O)cc(O)c4c3=O)[C@H](O)[C@@H](O)[C@@H]2O)[C@H](O)[C@H](O)[C@H]1O` [Rutin trihydrate], the IC50 cell viability was over 45.8 µM (ICRF193 0 nM) and over 45.8 µM (ICRF193 200 nM).
As for `CCOC(=O)/C=C(C)/C=C/C[C@@H](C)CCCC(C)C` [S-Hydroprene], the IC50 cell viability by setting is: (ICRF193 0 nM) over 45.8 µM; (ICRF193 200 nM) over 45.8 µM.
`CC(OC(=O)OC1CCCCC1)OC(=O)C1=C(CSc2nnnn2CCN(C)C)CS[C@@H]2[C@H](NC(=O)Cc3csc(N)n3)C(=O)N12` (stereo not given in full) [SCE 2174] registered an IC50 cell viability (ICRF193 0 nM) of over 45.8 µM and an IC50 cell viability (ICRF193 200 nM) of over 45.8 µM.
In the case of `CCCCCCCCCCCCOC(=O)CS(=O)(=O)O` [SODIUM LAURYL SULFOACETATE], the IC50 cell viability is, setting by setting: (ICRF193 0 nM) over 45.8 µM; (ICRF193 200 nM) over 45.8 µM.
In turn, `CCCCC(CC)CCC(CC(C)C)OS(=O)(=O)O` (stereo not given) [SODIUM TETRADECYL SULFATE] yielded an IC50 cell viability (ICRF193 0 nM) of over 45.8 µM and an IC50 cell viability (ICRF193 200 nM) of over 45.8 µM.
`O=C1C(CC[S+]([O-])c2ccccc2)C(=O)N(c2ccccc2)N1c1ccccc1` (stereo not given) [SULFINPYRAZONE] returned an IC50 cell viability (ICRF193 0 nM) of over 45.8 µM and an IC50 cell viability (ICRF193 200 nM) of over 45.8 µM.
For `O=C1NS(=O)(=O)c2ccccc21` [Saccharin], the IC50 cell viability is, setting by setting: (ICRF193 0 nM) over 45.8 µM; (ICRF193 200 nM) over 45.8 µM.
Turning to `C[C@H](NCc1ccc(OCc2cccc(F)c2)cc1)C(N)=O` [Safinamide], the IC50 cell viability by setting is: (ICRF193 0 nM) over 45.8 µM; (ICRF193 200 nM) over 45.8 µM.
For `CC(C)(C)NCC(O)c1ccc(O)c(CO)c1` (stereo not given) [Salbutamol], the IC50 cell viability was over 45.8 µM (ICRF193 0 nM) and over 45.8 µM (ICRF193 200 nM).
Regarding `OCc1ccccc1O` [Salicyl alcohol], the IC50 cell viability is over 45.8 µM (ICRF193 0 nM) and over 45.8 µM (ICRF193 200 nM).
Take `NC(=O)c1ccccc1O` [Salicylamide]: the IC50 cell viability is, setting by setting: (ICRF193 0 nM) over 45.8 µM; (ICRF193 200 nM) over 45.8 µM.
As for `OC[C@H]1O[C@@H](OCCc2ccc(O)cc2)[C@H](O)[C@@H](O)[C@@H]1O` [Salidroside], the IC50 cell viability reads like this: (ICRF193 0 nM) over 45.8 µM; (ICRF193 200 nM) over 45.8 µM.
As for `O=C(Oc1ccccc1C(=O)O)c1ccccc1O` [Salsalate], the IC50 cell viability is over 45.8 µM (ICRF193 0 nM) and over 45.8 µM (ICRF193 200 nM).
For the compound `O=C(O)c1cn(-c2ccc(F)cc2)c2cc(N3CCNCC3)c(F)cc2c1=O` [Sarafloxacin hydrochloride], the IC50 cell viability runs as follows: (ICRF193 0 nM) over 45.8 µM; (ICRF193 200 nM) over 45.8 µM.
`COc1cccc(CCc2ccccc2OCC(CN(C)C)OC(=O)CCC(=O)O)c1` (stereo not given) [Sarpogrelate hydrochloride] had an IC50 cell viability (ICRF193 0 nM) of over 45.8 µM and an IC50 cell viability (ICRF193 200 nM) of over 45.8 µM.

The values are drawn from the supplement of paper PMC12137928.
